Molecules are shown by their SMILES.

Regarding `CC(C)(C)OC(=O)N[C@H](Cc1ccc(C(F)(F)F)cc1)[C@@H](O)c1ccc(F)cc1` (racemic) [Example 28, 1,1-dimethylethyl (1RS,2SR)-2-(4-fluorophenyl)-2-hydroxy-1-((4-(trifluoromethyl)phenyl)methyl)ethylcarbamate], the melting point (as a rule, the temperature, or range, at which the solid turns liquid) was in the range of 158 to 159 °C.

`O=C(N[C@H](Cc1ccc(C(F)(F)F)cc1)[C@@H](O)c1ccc(F)cc1)c1ccc(F)c2c1CCCC2` (racemic) [Example 31, 4-fluoro-N-[(1RS,2SR)-2-(4-fluorophenyl)-2-hydroxy-1-[4-(trifluoromethyl)benzyl]ethyl]-5,6,7,8-tetrahydronaphthalene-1-carboxamide] had a melting point of 241 to 242 °C.

Compound `O=C(N[C@H](Cc1ccc(C(F)(F)F)cc1)[C@@H](O)c1ccc(F)cc1)c1cccc2c(F)cccc12` (racemic) [Example 32, 5-fluoro-N-[(1RS,2SR)-2-(4-fluorophenyl)-2-hydroxy-1-[4-(trifluoromethyl)benzyl]ethyl]naphthalene-1-carboxamide] displayed a melting point of 222 to 224 °C.

Compound `O=C(N[C@H](Cc1ccc(C(F)(F)F)cc1)[C@@H](O)c1ccc(F)cc1)c1cccc2c1CCCC2` (racemic) [Example 33, N-[(1RS,2SR)-2-(4-fluorophenyl)-2-hydroxy-1-[4-(trifluoromethyl)benzyl]ethyl]-5,6,7,8-tetrahydronaphthalene-1-carboxamide] came in with a melting point of 219 to 221 °C.

Take `O=C(N[C@H](Cc1ccc(C(F)(F)F)cc1)[C@@H](O)c1ccc(F)cc1)c1ccc(Cl)c2ccccc12` (racemic) [Example 34, 4-chloro-N-[(1RS,2SR)-2-(4-fluorophenyl)-2-hydroxy-1-[4-(trifluoromethyl)benzyl]ethyl]naphthalene-1-carboxamide]: the melting point lay within 222 to 223 °C.

Consider `O=C(N[C@H](Cc1ccc(C(F)(F)F)cc1)[C@@H](O)c1ccc(F)cc1)c1cccc2ccccc12` (racemic) [Example 35, N-[(1RS,2SR)-2-(4-fluorophenyl)-2-hydroxy-1-[4-(trifluoromethyl)benzyl]ethyl]naphthalene-1-carboxamide], for which the melting point lay in the range of 214 to 216 °C.

`Cc1ccc(C(=O)N[C@H](Cc2ccc(C(F)(F)F)cc2)[C@@H](O)c2ccc(F)cc2)c2ccccc12` (racemic) [Example 36, N-((1RS,2SR)-2-(4-fluorophenyl)-2-hydroxy-1-((4-(trifluoromethyl)phenyl)methyl)ethyl)-4-methyl-1-naphthalenecarboxamide]: the melting point lay within 198 to 199 °C.

In turn, `O=C(N[C@H](Cc1ccc(C(F)(F)F)cc1)[C@@H](O)c1ccc(F)cc1)c1cccc2c(Cl)cccc12` (racemic) [Example 37, 5-chloro-N-[(1RS,2SR)-2-(4-fluorophenyl)-2-hydroxy-1-[4-(trifluoromethyl)benzyl]ethyl]naphthalene-1-carboxamide] registered a melting point of 211 to 212 °C.

`O=C(N[C@H](Cc1ccc(C(F)(F)F)cc1)[C@@H](O)c1ccc(F)cc1)c1ccc([N+](=O)[O-])c2c1CCCC2` (racemic) [Example 38, N-[(1RS,2SR)-2-(4-fluorophenyl)-2-hydroxy-1-[4-(trifluoromethyl)benzyl]ethyl]-4-nitro-5,6,7,8-tetrahydronaphthalene-1-carboxamide] registered a melting point of 207 to 209 °C.

`O=C(N[C@H](Cc1ccc(C(F)(F)F)cc1)[C@@H](O)c1ccc(F)cc1)c1cccc2cc(F)ccc12` (racemic) [Example 39, 6-fluoro-N-[(1RS,2SR)-2 (4-fluorophenyl)-2-hydroxy-1-[4-(trifluoromethyl)benzyl]ethyl]naphthalene-1-carboxamide] had a melting point of 223 to 224 °C.

With `O=C(N[C@H](Cc1ccc(C(F)(F)F)cc1)[C@@H](O)c1ccc(F)cc1)c1cccc2c([N+](=O)[O-])cccc12` (racemic) [Example 40, N-[(1RS,2SR)-2-(4-fluorophenyl)-2-hydroxy-1-[4-(trifluoromethyl)benzyl]ethyl]-5-nitronaphthalene-1-carboxamide], the melting point was in the range of 211 to 214 °C.

For `O=C(N[C@H](Cc1ccc(C(F)(F)F)cc1)[C@@H](O)c1ccc(F)cc1)C1CCCc2ccccc21` (mixture of isomers) [Example 41, N-[(1RS,2SR)-2-(4-fluorophenyl)-2-hydroxy-1-[4-(trifluoromethyl)benzyl]ethyl]-1,2,3,4-tetrahydronaphthalene-1-carboxamide], the melting point is 205 to 214 °C.

Regarding `O=C(N[C@H](Cc1ccc(C(F)(F)F)cc1)[C@@H](O)c1ccc(F)cc1)c1cccc2c1CCCCC2` (racemic) [Example 42, N-[(1RS,2SR)-2-(4-fluorophenyl)-2-hydroxy-1-[4-(trifluoromethyl)benzyl]ethyl]-6,7,8,9-tetrahydro-5H-benzo[a]cycloheptene-1-carboxamide], the melting point fell in the range of 210 to 211 °C.

The compound `O=C(N[C@H](Cc1ccc(C(F)(F)F)cc1)[C@@H](O)c1ccc(F)cc1)c1ccc(Br)c2ccccc12` (racemic) [Example 43, 4-bromo-N-[(1RS,2SR)-2-(4-fluorophenyl)-2-hydroxy-1-[4-(trifluoromethyl)benzyl]ethyl]naphthalene-1-carboxamide] yielded a melting point of 229 to 231 °C.

Regarding `O=C(CC1CCCC1)N[C@H](Cc1ccc(C(F)(F)F)cc1)[C@@H](O)c1ccc(F)cc1` (racemic) [Example 44, 2-cyclopentyl-N-[(1RS,2SR)-2-(4-fluorophenyl)-2-hydroxy-1-[4-(trifluoromethyl)benzyl]ethyl]acetamide], the melting point lay within 195 to 196 °C.

`O=C(CCC1CCCC1)N[C@H](Cc1ccc(C(F)(F)F)cc1)[C@@H](O)c1ccc(F)cc1` (racemic) [Example 45, 3-cyclopentyl-N-[(1RS,2SR)-2-(4-fluorophenyl)-2-hydroxy-1-[4-(trifluoromethyl)benzyl]ethyl]propionamide]: the melting point fell in the range of 169 to 170 °C.

`O=C(N[C@H](Cc1ccc(C(F)(F)F)cc1)[C@@H](O)c1ccc(F)cc1)c1csc2ccccc12` (racemic) [Example 46, N-[(1RS,2SR)-2-(4-fluorophenyl)-2-hydroxy-1-[4-(trifluoromethyl)benzyl]ethyl]-1-benzothiophene-3-carboxamide] gave a melting point of 188 to 189 °C.

`O=C(CCCc1ccccc1)N[C@H](Cc1ccc(C(F)(F)F)cc1)[C@@H](O)c1ccc(F)cc1` (racemic) [Example 47, N-((1RS,2SR)-2-(4-fluorophenyl)-2-hydroxy-1-((4-(trifluoromethyl)phenyl)methyl)ethyl)-4-phenylbutyramide] gave a melting point of 150 to 151 °C.

Compound `O=C(CCc1ccccc1)N[C@H](Cc1ccc(C(F)(F)F)cc1)[C@@H](O)c1ccc(F)cc1` (racemic) [Example 48, N-((1RS,2SR)-2-(4-fluorophenyl)-2-hydroxy-1-((4-(trifluoromethyl)phenyl)methyl)ethyl)-3-phenylpropanamide] had a melting point of 144 to 145 °C.

Compound `CC(=CC(=O)N[C@H](Cc1ccc(C(F)(F)F)cc1)[C@@H](O)c1ccc(F)cc1)C(F)(F)F` (racemic) [Example 49, 4,4,4-trifluoro-N-[(1RS,2SR)-2-(4-fluorophenyl)-2-hydroxy-1-[4-(trifluoromethyl)benzyl]ethyl]-3-methyl-2-butenamide] returned a melting point of 182 to 183 °C.

Compound `O=C(N[C@H](Cc1ccc(C(F)(F)F)cc1)[C@@H](O)c1ccc(F)cc1)c1cccc(Cl)c1Cl` (racemic) [Example 50, 2,3-dichloro-N-((1RS,2SR)-2-(4-fluorophenyl)-2-hydroxy-1-((4-(trifluoromethyl)phenyl)methyl)ethyl)benzamide] returned a melting point of 187 to 188 °C.

Turning to `O=C(N[C@H](Cc1ccc(C(F)(F)F)cc1)[C@@H](O)c1ccc(F)cc1)c1cccc2cc([N+](=O)[O-])ccc12` (racemic) [Example 51, N-[(1RS,2SR)-2-(4-fluorophenyl)-2-hydroxy-1-[4-(trifluoromethyl)benzyl]ethyl]-6-nitronaphthalene-1-carboxamide], the melting point was 206 to 207 °C.

With `O=C(N[C@H](Cc1ccc(C(F)(F)F)cc1)[C@@H](O)c1ccc(F)cc1)C1CCCCC1` (racemic) [Example 52, N-((1RS,2SR)-2-(4-fluorophenyl)-2-hydroxy-1-((4-(trifluoromethyl)phenyl)methyl)ethyl)cyclohexanecarboxamide], the melting point is 203 to 204 °C.

The compound `O=C1CC(C(=O)N[C@H](Cc2ccc(C(F)(F)F)cc2)[C@@H](O)c2ccc(F)cc2)c2ccccc21` (mixture of isomers) [Example 53, N-((1RS,2SR)-2-(4-fluorophenyl)-2-hydroxy-1-((4-(trifluoromethyl)phenyl)methyl)ethyl)-3-oxo-2,3-dihydro-1H-indene-1-carboxamide] yielded a melting point of 237 to 238 °C.

`N#Cc1ccc(C(=O)N[C@H](Cc2ccc(C(F)(F)F)cc2)[C@@H](O)c2ccc(F)cc2)c2ccccc12` (racemic) [Example 54, 4-cyano-N-[(1RS,2SR)-2-(4-fluorophenyl)-2-hydroxy-1-[4-(trifluoromethyl)benzyl]ethyl]naphthalene-1-carboxamide] showed a melting point of 199 to 201 °C.

The compound `O=C(N[C@H](Cc1ccc(C(F)(F)F)cc1)[C@@H](O)c1ccc(F)cc1)c1ccc(F)cc1` (racemic) [Example 55, 4-fluoro-N-((1RS,2SR)-2-(4-fluorophenyl)-2-hydroxy-1-((4-(trifluoromethyl)phenyl)methyl)ethyl)benzamide] yielded a melting point of 202 to 203 °C.

`COc1ccc2c(C(=O)N[C@H](Cc3ccc(C(F)(F)F)cc3)[C@@H](O)c3ccc(F)cc3)cccc2c1` (racemic) [Example 56, N-((1RS,2SR)-2-(4-fluorophenyl)-2-hydroxy-1-((4-(trifluoromethyl)phenyl)methyl)ethyl)-6-(methyloxy)-1-naphthalenecarboxamide] had a melting point of 193 to 194 °C.

Compound `O=C(N[C@H](Cc1ccc(C(F)(F)F)cc1)[C@@H](O)c1ccc(F)cc1)c1ccnc2ccccc12` (racemic) [Example 57, N-((1RS,2SR)-2-(4-fluorophenyl)-2-hydroxy-1-((4-(trifluoromethyl)phenyl)methyl)ethyl)-4-quinolinecarboxamide] gave a melting point of 227 to 228 °C.

Source of the values: US6982348B2, “Aminoethanol derivatives” (Takeda Pharmaceutical Company Limited, priority 2001, dated 2006).
